# Patent US10765764B2, “Probes for imaging huntingtin protein” (CHDI Foundation, Inc., priority 2015, dated 2020)
# Molecular target: T1, Q46 protein aggregates (Homo sapiens, UniProt P42858)
# T1 construct: fused on or other part: An N-terminal GST tag, cleaved off with thrombin before the assay to trigger aggregation
# Experiment: Q46 Radioligand Binding Assay (RBA), displacement of [^3H3]MK-3328
# Conditions: 10 nM [^3H3]MK-3328, 5 μM Q46 protein aggregates
# Description: For radioligand binding assays (RBA) GST-Q46 protein was generated based on a previous publication (Scherzinger et al. Cell, Vol. 90, 549-558, Aug. 8, 1997). For experiments 33 μM GST-Q46 was incubated with 150 μg/mL thrombin in assay buffer (150 mM NaCl, 50 mM Tris pH 8.0) and 2 mM CaCl2 for 16 hours at 37° C. Aggregated Q46 was pelleted by centrifugation for 5 minutes at 13,000 rpm in a bench top centrifuge and re-dissolved in the same volume of assay buffer. Test compounds were prepared by titration in DMSO at 11 concentrations from 33 μM to 1 nM. For the RBA, Q46 protein aggregates and test compounds were pre-incubated in assay buffer for 20 minutes at room temperature, in 140 μL/well in a 96-well plate (pp, round bottom). Then, ligand was added in 10 μL/well and incubated for 60 minutes at 37° C. Final assay concentrations were 1 μM to 30 pM test compound, 5 μM Q46 protein (equivalent monomer concentration) and 10 nM ligand [^3H3]MK-3328 (Harrision et al., ACS Med. Chem. Lett., 2 (2011), pp 498-502). Samples were transferred onto GF/B filter plates and washed 2× with 200 μL PBS using a Filtermate Harvester. After drying filter plates for 1 hour at 37° C., the back of the plates was sealed with foil and 30 μl/well scintillation fluid (Packard MicroScint 40) was added, incubated for incubated for 15 minutes in the dark and counted in a TopCount reader. For analysis, replicate data from independent assay plates were normalized towards 0% and 100% inhibition using control wells of vehicle (0% inhibition) and 3 μM unlabelled MK-3328 (100% inhibition). IC50 values were determined with a sigmoidal inhibition model with four variables (top, bottom, slope, IC50) in a global fit using the normalized replicate data.
# T1 sequence (P42858 with tags, fused parts or gaps with the stated changes, form open): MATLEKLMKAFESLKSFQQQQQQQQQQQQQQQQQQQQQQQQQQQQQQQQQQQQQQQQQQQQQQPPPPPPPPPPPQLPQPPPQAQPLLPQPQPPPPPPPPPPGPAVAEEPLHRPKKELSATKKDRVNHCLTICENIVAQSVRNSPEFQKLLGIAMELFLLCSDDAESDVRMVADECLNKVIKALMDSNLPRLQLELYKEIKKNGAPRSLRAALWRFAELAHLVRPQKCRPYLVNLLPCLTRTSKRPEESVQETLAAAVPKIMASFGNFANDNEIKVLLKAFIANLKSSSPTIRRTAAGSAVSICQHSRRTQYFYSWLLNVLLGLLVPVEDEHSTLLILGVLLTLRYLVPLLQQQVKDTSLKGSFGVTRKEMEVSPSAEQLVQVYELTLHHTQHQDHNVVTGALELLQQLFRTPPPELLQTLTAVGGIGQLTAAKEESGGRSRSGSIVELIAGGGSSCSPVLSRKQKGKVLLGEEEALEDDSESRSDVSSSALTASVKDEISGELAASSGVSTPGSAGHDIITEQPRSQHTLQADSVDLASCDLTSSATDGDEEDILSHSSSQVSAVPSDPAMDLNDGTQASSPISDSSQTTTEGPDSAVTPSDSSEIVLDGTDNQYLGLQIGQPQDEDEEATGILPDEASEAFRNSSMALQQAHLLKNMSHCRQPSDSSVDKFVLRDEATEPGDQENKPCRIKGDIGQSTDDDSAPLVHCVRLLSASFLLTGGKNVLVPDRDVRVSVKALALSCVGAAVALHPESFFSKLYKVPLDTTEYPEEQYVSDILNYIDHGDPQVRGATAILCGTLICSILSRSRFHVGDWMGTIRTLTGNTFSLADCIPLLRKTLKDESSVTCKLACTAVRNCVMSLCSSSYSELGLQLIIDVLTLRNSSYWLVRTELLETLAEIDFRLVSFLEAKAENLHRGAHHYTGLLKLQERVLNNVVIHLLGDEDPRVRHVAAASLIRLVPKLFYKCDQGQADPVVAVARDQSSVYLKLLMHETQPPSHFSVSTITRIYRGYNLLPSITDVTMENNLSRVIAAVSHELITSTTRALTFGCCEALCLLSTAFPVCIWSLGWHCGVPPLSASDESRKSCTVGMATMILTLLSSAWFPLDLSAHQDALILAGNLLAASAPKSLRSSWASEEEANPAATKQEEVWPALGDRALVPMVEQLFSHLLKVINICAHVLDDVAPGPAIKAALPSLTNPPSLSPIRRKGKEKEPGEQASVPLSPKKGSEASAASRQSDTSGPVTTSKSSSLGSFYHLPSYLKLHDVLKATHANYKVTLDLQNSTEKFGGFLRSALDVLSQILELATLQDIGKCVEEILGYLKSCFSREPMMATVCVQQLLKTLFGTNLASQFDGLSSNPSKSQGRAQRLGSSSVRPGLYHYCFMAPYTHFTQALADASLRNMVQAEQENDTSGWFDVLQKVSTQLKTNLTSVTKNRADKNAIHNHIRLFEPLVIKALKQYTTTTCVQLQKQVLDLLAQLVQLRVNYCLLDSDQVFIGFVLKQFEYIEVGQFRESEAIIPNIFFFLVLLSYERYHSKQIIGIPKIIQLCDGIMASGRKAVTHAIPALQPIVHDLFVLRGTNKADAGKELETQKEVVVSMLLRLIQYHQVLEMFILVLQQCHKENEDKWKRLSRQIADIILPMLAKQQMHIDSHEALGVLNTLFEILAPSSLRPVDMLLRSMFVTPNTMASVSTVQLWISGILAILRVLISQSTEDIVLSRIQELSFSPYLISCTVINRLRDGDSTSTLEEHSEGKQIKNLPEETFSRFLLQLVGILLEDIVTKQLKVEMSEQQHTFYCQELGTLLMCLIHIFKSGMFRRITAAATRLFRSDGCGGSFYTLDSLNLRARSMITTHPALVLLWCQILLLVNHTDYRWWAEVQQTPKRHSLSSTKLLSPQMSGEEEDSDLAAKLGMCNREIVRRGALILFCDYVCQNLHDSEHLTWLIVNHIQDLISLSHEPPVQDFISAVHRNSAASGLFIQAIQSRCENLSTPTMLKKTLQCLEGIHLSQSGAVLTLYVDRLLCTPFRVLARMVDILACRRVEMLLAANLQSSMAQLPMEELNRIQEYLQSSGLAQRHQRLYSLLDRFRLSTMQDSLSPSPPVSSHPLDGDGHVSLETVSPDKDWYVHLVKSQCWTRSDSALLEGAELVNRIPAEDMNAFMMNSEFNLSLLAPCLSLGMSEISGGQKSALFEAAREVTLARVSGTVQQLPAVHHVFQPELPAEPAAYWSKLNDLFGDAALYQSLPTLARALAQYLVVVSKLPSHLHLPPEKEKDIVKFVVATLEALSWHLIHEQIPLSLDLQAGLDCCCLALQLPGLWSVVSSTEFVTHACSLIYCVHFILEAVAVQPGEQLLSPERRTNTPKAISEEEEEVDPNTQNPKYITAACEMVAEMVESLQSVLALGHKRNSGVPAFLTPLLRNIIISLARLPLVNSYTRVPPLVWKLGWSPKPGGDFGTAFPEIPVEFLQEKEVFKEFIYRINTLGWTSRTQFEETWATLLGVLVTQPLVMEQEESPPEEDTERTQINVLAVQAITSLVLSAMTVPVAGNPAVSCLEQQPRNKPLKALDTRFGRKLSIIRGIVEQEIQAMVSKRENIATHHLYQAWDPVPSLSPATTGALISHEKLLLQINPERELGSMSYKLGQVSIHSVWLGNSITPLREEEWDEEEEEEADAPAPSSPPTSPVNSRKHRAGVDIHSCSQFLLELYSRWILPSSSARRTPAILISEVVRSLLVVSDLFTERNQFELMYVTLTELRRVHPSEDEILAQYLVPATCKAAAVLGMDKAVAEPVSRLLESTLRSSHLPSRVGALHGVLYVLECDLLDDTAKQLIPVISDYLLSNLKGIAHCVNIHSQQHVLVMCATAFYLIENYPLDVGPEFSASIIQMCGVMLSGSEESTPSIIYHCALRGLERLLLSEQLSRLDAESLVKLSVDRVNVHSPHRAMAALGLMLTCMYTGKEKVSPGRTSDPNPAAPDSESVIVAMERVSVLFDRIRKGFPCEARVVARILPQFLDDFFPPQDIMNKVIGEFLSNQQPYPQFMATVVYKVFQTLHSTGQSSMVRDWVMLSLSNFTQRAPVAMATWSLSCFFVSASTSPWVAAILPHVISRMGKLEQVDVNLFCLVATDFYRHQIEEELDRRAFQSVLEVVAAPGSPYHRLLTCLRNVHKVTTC
row,SMILES,IC50 [nM]
1,"COc1ccc2c(c1)sc1nc(C(=O)Nc3ccc[n+]([O-])c3)cn12 [3-{10-methoxy-7-thia-2,5-diazatricyclo[6.4.0.0^2,6]dodeca-1(12),3,5,8,10-pentaene-4-amido}pyridin-1-ium-1-olate]",100 to 500
2,"COc1cncc(NC(=O)c2ccn3c(n2)nc2ccc(OC)cc23)c1 [4-methoxy-N-(5-methoxypyridin-3-yl)-1,8,10-triazatricyclo[7.4.0.0^2,7]trideca-2(7),3,5,8,10,12-hexaene-11-carboxamide]",< 100
3,"COc1ccc2c(c1)nc1nc(C(=O)N3Cc4cnn(C)c4C3)ccn12 [5-methoxy-11-{1-methyl-1H,4H,5H,6H-pyrrolo[3,4-c]pyrazole-5-carbonyl}-1,8,10-triazatricyclo[7.4.0.0^2,7]trideca-2(7),3,5,8,10,12-hexaene]",< 100
4,"COc1ccc2c(c1)nc1nc(C(=O)Nc3ccc(=O)n(C)n3)ccn12 [5-methoxy-N-(1-methyl-6-oxo-1,6-dihydropyridazin-3-yl)-1,8,10-triazatricyclo[7.4.0.0^2,7]trideca-2(7),3,5,8,10,12-hexaene-11-carboxamide]",< 100
5,"COc1cncc(NC(=O)c2ccn3c(n2)nc2cc(OC)ccc23)c1 [5-methoxy-N-(5-methoxypyridin-3-yl)-1,8,10-triazatricyclo[7.4.0.0^2,7]trideca-2(7),3,5,8,10,12-hexaene-11-carboxamide]",< 100
6,"COc1ccc2c(c1)nc1nc(C(=O)Nc3ccc(OC)nc3)ccn12 [5-methoxy-N-(6-methoxypyridin-3-yl)-1,8,10-triazatricyclo[7.4.0.0^2,7]trideca-2(7),3,5,8,10,12-hexaene-11-carboxamide]",< 100
7,"COc1ccc2c(c1)nc1nc(C(=O)Nc3cccnc3)ccn12 [5-methoxy-N-(pyridin-3-yl)-1,8,10-triazatricyclo[7.4.0.0^2,7]trideca-2(7),3,5,8,10,12-hexaene-11-carboxamide]",< 100
8,"O=C(Nc1cccnc1)c1cn2c(n1)sc1cc(OCCF)ccc12 [10-(2-fluoroethoxy)-N-(pyridin-3-yl)-7-thia-2,5-diazatricyclo[6.4.0.0^2,6]dodeca-1(8),3,5,9,11-pentaene-4-carboxamide]",< 100
9,"COc1ccc(COc2ccc3c(c2)sc2nc(C(=O)Nc4cncc(OC)c4)cn23)nc1 [10-[(5-methoxypyridin-2-yl)methoxy]-N-(5-methoxypyridin-3-yl)-7-thia-2,5-diazatricyclo[6.4.0.0^2,6]dodeca-1(12),3,5,8,10-pentaene-4-carboxamide]",< 100
10,"COc1cncc(NC(=O)c2cn3c(n2)sc2cc(CN(C)C)ccc23)c1 [10-[(dimethylamino)methyl]-N-(5-methoxypyridin-3-yl)-7-thia-2,5-diazatricyclo[6.4.0.0^2,6]dodeca-1(12),3,5,8,10-pentaene-4-carboxamide]",100 to 500
11,"COc1ccc(NC(=O)c2cn3c(n2)sc2cc(O)ccc23)cn1 [10-hydroxy-N-(6-methoxypyridin-3-yl)-7-thia-2,5-diazatricyclo[6.4.0.0^2,6]dodeca-1(12),3,5,8,10-pentaene-4-carboxamide]",< 100
12,"O=C(Nc1cccnc1)c1cn2c(n1)sc1cc(O)ccc12 [10-hydroxy-N-(pyridin-3-yl)-7-thia-2,5-diazatricyclo[6.4.0.0^2,6]dodeca-1(12),3,5,8,10-pentaene-4-carboxamide]",< 100
13,"COc1ccc2c(c1)sc1nc(C(=O)N3Cc4cnn(C)c4C3)cn12 [10-methoxy-4-{1-methyl-1H,4H,5H,6H-pyrrolo[3,4-c]pyrazole-5-carbonyl}-7-thia-2,5-diazatricyclo[6.4.0.0^2,6]dodeca-1(12),3,5,8,10-pentaene]",< 100
14,"COc1ccc2c(c1)sc1nc(C(=O)N3CCc4ccncc43)cn12 [10-methoxy-4-{1H,2H,3H-pyrrolo[2,3-c]pyridine-1-carbonyl}-7-thia-2,5-diazatricyclo[6.4.0.0^2,6]dodeca-1(12),3,5,8,10-pentaene]",> 500
15,"COc1ccc2c(c1)sc1nc(C(=O)Nc3cnn(C)c3)cn12 [10-methoxy-N-(1-methyl-1H-pyrazol-4-yl)-7-thia-2,5-diazatricyclo[6.4.0.0^2,6]dodeca-1(12),3,5,8,10-pentaene-4-carboxamide]",100 to 500
16,"COc1ccc2c(c1)nc1sc(C(=O)Nc3ccc(=O)n(C)n3)cn12 [10-methoxy-N-(1-methyl-6-oxo-1,6-dihydropyridazin-3-yl)-5-thia-2,7-diazatricyclo[6.4.0.0^2,6]dodeca-1(12),3,6,8,10-pentaene-4-carboxamide]",< 100

row,SMILES,IC50 [nM]
1,"COCCNC(=O)c1cn2c(n1)sc1cc(OC)ccc12 [10-methoxy-N-(2-methoxyethyl)-7-thia-2,5-diazatricyclo[6.4.0.0^2,6]dodeca-1(12),3,5,8,10-pentaene-4-carboxamide]",100 to 500
2,"COc1ccc2c(c1)nc1sc(C(=O)Nc3cnc(C)nc3)cn12 [10-methoxy-N-(2-methylpyrimidin-5-yl)-5-thia-2,7-diazatricyclo[6.4.0.0^2,6]dodeca-1(8),3,6,9,11-pentaene-4-carboxamide]",< 100
3,"COc1ccc2c(c1)sc1nc(C(=O)Nc3cnc(C)nc3)cn12 [10-methoxy-N-(2-methylpyrimidin-5-yl)-7-thia-2,5-diazatricyclo[6.4.0.0^2,6]dodeca-1(12),3,5,8,10-pentaene-4-carboxamide]",< 100
4,"COc1ccc(NC(=O)c2cn3c(n2)sc2cc(OC)ccc23)nc1 [10-methoxy-N-(5-methoxypyridin-2-yl)-7-thia-2,5-diazatricyclo[6.4.0.0^2,6]dodeca-1(12),3,5,8,10-pentaene-4-carboxamide]",< 100
5,"COc1cncc(NC(=O)c2cn3c(nc4cc(OC)ccc43)s2)c1 [10-methoxy-N-(5-methoxypyridin-3-yl)-5-thia-2,7-diazatricyclo[6.4.0.0^2,6]dodeca-1(12),3,6,8,10-pentaene-4-carboxamide]",< 100
6,"COc1cncc(NC(=O)c2cn3c(n2)sc2nc(OC)ccc23)c1 [10-methoxy-N-(5-methoxypyridin-3-yl)-7-thia-2,5,9-triazatricyclo[6.4.0.0^2,6]dodeca-1(12),3,5,8,10-pentaene-4-carboxamide]",< 100
7,"COc1cncc(NC(=O)c2cn3c(n2)sc2cc(OC)ccc23)c1 [10-methoxy-N-(5-methoxypyridin-3-yl)-7-thia-2,5-diazatricyclo[6.4.0.0^2,6]dodeca-1(12),3,5,8,10-pentaene-4-carboxamide]",< 100
8,"COc1ccc2c(c1)sc1nc(C(=O)Nc3ccc(OC)nc3)cn12 [10-methoxy-N-(6-methoxypyridin-3-yl)-7-thia-2,5-diazatricyclo[6.4.0.0^2,6]dodeca-1(12),3,5,8,10-pentaene-4-carboxamide]",< 100
9,"COc1ccc2c(c1)sc1nc(C(=O)Nc3ccc(C)nc3)cn12 [10-methoxy-N-(6-methylpyridin-3-yl)-7-thia-2,5-diazatricyclo[6.4.0.0^2,6]dodeca-1(12),3,5,8,10-pentaene-4-carboxamide]",< 100
10,"COc1ccc2c(c1)sc1nc(C(=O)Nc3ccc(=O)[nH]n3)cn12 [10-methoxy-N-(6-oxo-1,6-dihydropyridazin-3-yl)-7-thia-2,5-diazatricyclo[6.4.0.0^2,6]dodeca-1(12),3,5,8,10-pentaene-4-carboxamide]",< 100
11,"COc1ccc2c(c1)sc1nc(C(=O)Nc3ccc(=O)[nH]c3)cn12 [10-methoxy-N-(6-oxo-1,6-dihydropyridin-3-yl)-7-thia-2,5-diazatricyclo[6.4.0.0^2,6]dodeca-1(12),3,5,8,10-pentaene-4-carboxamide]",< 100
12,"COc1ccc2c(c1)sc1nc(C(=O)Nc3cnccn3)cn12 [10-methoxy-N-(pyrazin-2-yl)-7-thia-2,5-diazatricyclo[6.4.0.0^2,6]dodeca-1(12),3,5,8,10-pentaene-4-carboxamide]",< 100
13,"COc1ccc2c(n1)sc1nc(C(=O)Nc3cccnc3)cn12 [10-methoxy-N-(pyridin-3-yl)-7-thia-2,5,9-triazatricyclo[6.4.0.0^2,6]dodeca-1(12),3,5,8,10-pentaene-4-carboxamide]",< 100
14,"COc1ccc2c(c1)sc1nc(C(=O)Nc3cccnc3)cn12 [10-methoxy-N-(pyridin-3-yl)-7-thia-2,5-diazatricyclo[6.4.0.0^2,6]dodeca-1(12),3,5,8,10-pentaene-4-carboxamide]",< 100
15,"COc1ccc2c(c1)sc1nc(C(=O)NCc3cccnc3)cn12 [10-methoxy-N-(pyridin-3-ylmethyl)-7-thia-2,5-diazatricyclo[6.4.0.0^2,6]dodeca-1(12),3,5,8,10-pentaene-4-carboxamide]",> 500
16,"COc1ccc2c(c1)sc1nc(C(=O)Nc3ccncc3)cn12 [10-methoxy-N-(pyridin-4-yl)-7-thia-2,5-diazatricyclo[6.4.0.0^2,6]dodeca-1(12),3,5,8,10-pentaene-4-carboxamide]",< 100
